Article PMC10235067, “Increased renal elimination of endogenous and synthetic pyrimidine nucleosides in concentrative nucleoside transporter 1 deficient mice” (Nature Communications, 2023)
Several values for one entry are separate records, joined by “and”; a condition that tells them apart may be missing. Identical values can stand only once. Counter-ions that a name gives are not always drawn.

Test: Gemcitabine plasma pharmacokinetics in Slc28a1+/+ and Slc28a1-/- mice
Conditions: for half-life: T1/2 (terminal half-life); for Vd: Vss
[1] = Gemcitabine in plasma, KO mice, iv gemcitabine 50mg/kg, per mouse
[2] = Gemcitabine in plasma, WT mice, iv gemcitabine 50mg/kg, per mouse
[3] = female, mouse, plasma, iv, 50 mg/kg, Slc28a1+/+ mice, plasma, single i.v. dFdC 50 mg/kg
[4] = female, mouse, plasma, iv, 50 mg/kg, Slc28a1-/- mice, single i.v. dFdC 50 mg/kg

Procedure: To collect blood, a 5 mm lancet was used to apply pressure to the submandibular vein and release blood flow. For retro-orbital collection, mice were anesthetized with 3% isoflurane in oxygen, and the blood was collected directly into heparinized capillary tubes by applying slight pressure to the medial canthus of the eye. Cardiac puncture was performed as the final collection method by first euthanizing the mice in a CO2 chamber and immediately performing posterior cardiac puncture by inserting a 27 G needle with a 1 ml syringe attachment into the heart. Once blood collection was completed, gentle pressure was applied to the blood collection area using gauze to stop the bleeding. Thirty microliters of blood was collected into heparinized capillary tubes at each time point, transferred into prelabeled 0.5 ml microcentrifuge tubes containing THU (10 µg/ml; final concentration), and immediately processed and snap-frozen following procedures outlined in the “Gemcitabine plasma pharmacokinetics” methods section.
Gemcitabine and dFdU plasma concentrations were measured using a modified version of our previously published UHPLC–MS/MS method for nucleosides[74] […] Noncompartmental pharmacokinetic parameters (Cmax, Tmax, AUC, CL, T1/2, etc.) were calculated using WinNonlin 6.2 software (Pharsight; Mountain View, CA). […] The Cmax and Tmax were obtained from the concentration-time curve. The AUC was calculated according to the linear trapezoidal rule up to the last time point with a measurable concentration of the analyte of interest. Significant differences between Slc28a1^+/+ and Slc28a1^−/− mouse pharmacokinetic parameters (p < 0.05) were evaluated with an unpaired two-sided Student’s t-test.
The resulting supernatant was evaporated to dryness in a SpeedVac, and the remaining residue was reconstituted in mobile phase A for subsequent analysis. […] Subsequent processing was identical to that for the plasma and urine samples.
Briefly, the analysis was performed on an Imtakt Schzero SM C18 column, 2.1 × 100 mm, 3.0 µm particle size. The eluents used consisted of mobile phase A consisting of 50 mM ammonium formate:50 mM ammonium hydroxide (9:1, v/v) (pH = 8.6) and mobile phase B consisting of 50 mM ammonium formate:50 mM ammonium hydroxide (9:1, v/v):ACN (80:20, v/v) (pH = 8.6). […] The injection volume was 10 μL, and the autosampler temperature was set at 4 °C throughout the analysis.
The Waters Triple Quadrupole Mass Spectrometer with an ESI source was operated in negative and positive ion mode at a spray voltage of 2.5 kV, capillary temperature of 150 °C, and vaporizer temperature of 250 °C. Compound optimization was performed manually using the MassLynx 4.1 Software AutoTune Wizard (Waters, Milford, MA) by infusion into the mass spectrometer using a T-connector. […] Analyze concentrations were determined and analyzed using MassLynx Mass Spectrometry Software (Waters; Milford, MA).

## Nc1ccn([C@@H]2O[C@H](CO)[C@@H](O)C2(F)F)c(=O)n1 [dFdC, Gemcitabine hydrochloride, reference compound]
[1]
  Cl_pred: 1090.62 mL/min/kg and 746.095 mL/min/kg and 1290.14 mL/min/kg and 969.932 mL/min/kg and 755.617 mL/min/kg and 623.084 mL/min/kg
  Clast: 24.8237 ng/mL and 27.6006 ng/mL and 29.5353 ng/mL and 24.934 ng/mL and 28.2215 ng/mL and 23.0093 ng/mL
  Clast_pred: 24.8933 ng/mL and 27.6326 ng/mL and 17.7456 ng/mL and 8.289 ng/mL and 12.8177 ng/mL and 22.4033 ng/mL
  Cmax_D: 41.5984 kg·ng/mL/mg and 55.7076 kg·ng/mL/mg and 53.2658 kg·ng/mL/mg and 59.6169 kg·ng/mL/mg and 79.356 kg·ng/mL/mg and 84.6224 kg·ng/mL/mg
  HL_Lambda_z: 303.191 min and 463.2 min and 8.504 min and 40.9198 min and 7.338 min and 145.3 min
  Lambda_z: 0.002286 min⁻¹ and 0.001496 min⁻¹ and 0.08151 min⁻¹ and 0.01694 min⁻¹ and 0.09446 min⁻¹ and 0.00477 min⁻¹
  MRTINF_obs: 141.603 min and 225.512 min and 8.15 min and 26.989 min and 6.943 min and 27.8346 min
  MRTINF_pred: 141.879 min and 225.692 min and 7.911 min and 21.8034 min and 6.786 min and 27.3569 min
  MRTlast: 12.4456 min and 11.7249 min and 7.547 min and 19.1465 min and 6.655 min and 8.568 min
  Tlast: 120 min and 60 min and 240 min
  Tmax: 5 min
  Vss_obs: 154.537 L/kg and 168.308 L/kg and 10.4759 L/kg and 25.6879 L/kg and 5.23323 L/kg and 17.3159 L/kg
  Vss_pred: 154.735 L/kg and 168.388 L/kg and 10.2063 L/kg and 21.1478 L/kg and 5.12762 L/kg and 17.0456 L/kg
  Vz_obs: 477.366 L/kg and 498.742 L/kg and 15.7693 L/kg and 56.1887 L/kg and 7.97936 L/kg and 130.407 L/kg
  Vz_pred: 477.049 L/kg and 498.582 L/kg and 15.8281 L/kg and 57.2597 L/kg and 7.99903 L/kg and 130.613 L/kg
[2]
  AUCINF_D_obs: 1342.37 kg·ng·min/mL/mg and 2003.95 kg·ng·min/mL/mg and 1404.16 kg·ng·min/mL/mg and 1832.16 kg·ng·min/mL/mg and 1677.59 kg·ng·min/mL/mg and 1947.35 kg·ng·min/mL/mg
  AUCINF_D_pred: 1351.51 kg·ng·min/mL/mg and 2009.55 kg·ng·min/mL/mg and 1397.88 kg·ng·min/mL/mg and 1826.34 kg·ng·min/mL/mg and 1669.05 kg·ng·min/mL/mg and 1936.73 kg·ng·min/mL/mg
  AUCINF_obs: 100198 ng·min/mL and 70207.8 ng·min/mL and 91608.1 ng·min/mL and 83879.3 ng·min/mL and 97367.3 ng·min/mL
  AUCINF_pred: 100478 ng·min/mL and 69893.8 ng·min/mL and 91317 ng·min/mL and 83452.5 ng·min/mL and 96836.3 ng·min/mL
  AUC_%Back_Ext_obs: 12.8582% and 20.8763% and 29.2762% and 32.2576% and 32.4305% and 25.1142%
  AUC_%Back_Ext_pred: 12.7713% and 20.8181% and 29.4077% and 32.3604% and 32.5963% and 25.252%
  AUC_%Extrap_obs: 9.702% and 18.5437% and 0.7839% and 0.5327% and 0.8134% and 0.9221%
  AUC_%Extrap_pred: 10.3129% and 18.7708% and 0.3382% and 0.2157% and 0.3062% and 0.3788%
  AUCall: 81617.2 ng·min/mL and 71149.3 ng·min/mL and 92539.9 ng·min/mL and 85061.6 ng·min/mL and 98831 ng·min/mL
  AUClast: 81617.2 ng·min/mL and 69657.4 ng·min/mL and 91120.1 ng·min/mL and 83197 ng·min/mL and 96469.4 ng·min/mL
  AUClast_D: 1212.13 kg·ng·min/mL/mg and 1632.34 kg·ng·min/mL/mg and 1393.15 kg·ng·min/mL/mg and 1822.4 kg·ng·min/mL/mg and 1663.94 kg·ng·min/mL/mg and 1929.39 kg·ng·min/mL/mg
  AUMCINF_obs: 5069956 min*min*ng/mL and 20471433 min*min*ng/mL and 1064873 min*min*ng/mL and 1254821 min*min*ng/mL and 1108567 min*min*ng/mL and 1728699 min*min*ng/mL
  AUMCINF_pred: 5292862 min*min*ng/mL and 20755711 min*min*ng/mL and 1020250 min*min*ng/mL and 1213897 min*min*ng/mL and 1047980 min*min*ng/mL and 1652866 min*min*ng/mL
  AUMC_%Extrap_obs: 62.651% and 92.1199% and 7.346% and 5.469% and 8.737% and 7.417%
  AUMC_%Extrap_pred: 64.2239% and 92.2278% and 3.293% and 2.282% and 3.461% and 3.17%
  AUMClast: 1893578 min*min*ng/mL and 1613171 min*min*ng/mL and 986649 min*min*ng/mL and 1186197 min*min*ng/mL and 1011712 min*min*ng/mL and 1600474 min*min*ng/mL
  C0: 1738.74 ng/mL and 4426.87 ng/mL and 4597.66 ng/mL and 7279.69 ng/mL and 6681.38 ng/mL and 5877.84 ng/mL
  Cl_obs: 499.014 mL/min/kg and 712.172 mL/min/kg and 545.803 mL/min/kg and 596.095 mL/min/kg and 513.519 mL/min/kg
  Cl_pred: 739.914 mL/min/kg and 497.623 mL/min/kg and 715.371 mL/min/kg and 547.543 mL/min/kg and 599.143 mL/min/kg and 516.335 mL/min/kg
  Clast: 26.282 ng/mL and 23.9761 ng/mL and 24.8646 ng/mL and 23.6637 ng/mL and 31.0775 ng/mL and 39.3598 ng/mL
  Clast_pred: 28.1263 ng/mL and 24.3375 ng/mL and 10.6806 ng/mL and 9.552 ng/mL and 11.6372 ng/mL and 16.0822 ng/mL
  Cmax_D: 35.2165 kg·ng/mL/mg and 78.8031 kg·ng/mL/mg and 72.4804 kg·ng/mL/mg and 90.8107 kg·ng/mL/mg and 83.992 kg·ng/mL/mg and 78.0677 kg·ng/mL/mg
  HL_Lambda_z: 171.744 min and 537.158 min and 15.3422 min and 14.2945 min and 15.2178 min and 15.8118 min
  Lambda_z: 0.004036 min⁻¹ and 0.00129 min⁻¹ and 0.04518 min⁻¹ and 0.04849 min⁻¹ and 0.04555 min⁻¹ and 0.04384 min⁻¹
  MRTINF_obs: 75.5375 min and 204.311 min and 15.1675 min and 13.6977 min and 13.2162 min and 17.7544 min
  MRTINF_pred: 78.3253 min and 206.57 min and 14.5971 min and 13.2932 min and 12.5578 min and 17.0687 min
  MRTlast: 31.2438 min and 19.7651 min and 14.1643 min and 13.018 min and 12.1604 min and 16.5905 min
  Tlast: 240 min and 120 min
  Tmax: 15 min
  Vss_obs: 56.2718 L/kg and 101.954 L/kg and 10.8018 L/kg and 7.47626 L/kg and 7.87812 L/kg and 9.11723 L/kg
  Vss_pred: 57.954 L/kg and 102.794 L/kg and 10.4424 L/kg and 7.27861 L/kg and 7.52393 L/kg and 8.81315 L/kg
  Vz_obs: 184.58 L/kg and 386.714 L/kg and 15.7633 L/kg and 11.2559 L/kg and 13.087 L/kg and 11.7142 L/kg
  Vz_pred: 183.332 L/kg and 385.636 L/kg and 15.8341 L/kg and 11.2918 L/kg and 13.154 L/kg and 11.7784 L/kg
Slc28a1+/+ mice, plasma, single i.v. dFdC 50 mg/kg
  AUC (Last): 81307.3 ± 4123.2 ng x min/mL and 81307 ng x min/mL
Slc28a1-/- mice, plasma, single i.v. dFdC 50 mg/kg
  AUC (Last): 52203.2 ± 3611.3 ng x min/mL and 52203 ng x min/mL
Slc28a1-/- mice, single i.v. dFdC 50 mg/kg
  CL (systemic clearance): 950 mL/min/kg
female, mouse, plasma, intravenous, 50 mg/kg, Cp (Gemcitabine), KO mice, single iv gemcitabine 50mg/kg, 10 min
  concentration at 10 min: 1940 ng/mL
female, mouse, plasma, intravenous, 50 mg/kg, Cp (Gemcitabine), KO mice, single iv gemcitabine 50mg/kg, 60 min
  concentration at 60 min: 28.8 ng/mL
female, mouse, plasma, iv, 50 mg/kg, AUCINF_obs, Gemcitabine in plasma, WT mice, iv gemcitabine 50mg/kg, per mouse
  AUC(0-inf): 1120 ng·h/mL
female, mouse, plasma, iv, 50 mg/kg, AUCINF_pred, Gemcitabine in plasma, WT mice, iv gemcitabine 50mg/kg, per mouse
  AUC(0-inf): 1130 ng·h/mL
female, mouse, plasma, iv, 50 mg/kg, AUCall, Gemcitabine in plasma, WT mice, iv gemcitabine 50mg/kg, per mouse
  AUC: 1010 ng·h/mL
female, mouse, plasma, iv, 50 mg/kg, AUClast, Gemcitabine in plasma, WT mice, iv gemcitabine 50mg/kg, per mouse
  AUC(0-t): 1010 ng·h/mL
female, mouse, plasma, iv, 50 mg/kg, CL (systemic clearance), Slc28a1+/+ mice, single i.v. dFdC 50 mg/kg
  clearance: 607 mL/min/kg
female, mouse, plasma, iv, 50 mg/kg, CL (systemic clearance), Slc28a1-/- mice, single i.v. dFdC 50 mg/kg
  clearance: 951 ± 167 mL/min/kg
female, mouse, plasma, iv, 50 mg/kg, Cl_obs, Gemcitabine in plasma, WT mice, iv gemcitabine 50mg/kg, per mouse
  clearance: 745 mL/min/kg
[3]
  Cmax: 3650 ± 408 ng/mL
  half-life: 13.6 ± 0.67 min
[4]
  Cmax: 3120 ± 335 ng/mL
  half-life: 11.5 ± 0.81 min
  Vd: 14.1 L/kg
female, mouse, plasma, iv, 50 mg/kg, Tmax, Slc28a1+/+ mice, plasma, single i.v. dFdC 50 mg/kg
  Tmax: ~5 min
female, mouse, plasma, iv, 50 mg/kg, Tmax, Slc28a1-/- mice, single i.v. dFdC 50 mg/kg
  Tmax: ~5 min
female, mouse, plasma, iv, 50 mg/kg, Slc28a1+/+ mice, single i.v. dFdC 50 mg/kg
  Vd: 14.4 L/kg
plasma, KO mice, single iv gemcitabine 50mg/kg, 10 min
  Cp (Gemcitabine): 2505.77 ng/mL and 1699.01 ng/mL and 1487.77 ng/mL and 1743.2 ng/mL and 1817.05 ng/mL
plasma, KO mice, single iv gemcitabine 50mg/kg, 60 min
  Cp (Gemcitabine): 30.3338 ng/mL and 29.5353 ng/mL and 27.3213 ng/mL and 28.2215 ng/mL and 27.5324 ng/mL
